Test results reported in patent US8455196B2, “Biomarker for identifying subgroup of early-stage lung adenocarcinoma patients” (priority 2011, dated 2013).

Key:
[1] = tested on: PTEN; experiment: Immunoblot of PTEN in TOPK-transfected CL1-0 cells treated with inhibitor; format: cell-based, human; details: LY294002 10 μM
Experimental: CL1-0 (C, left), H1299 (C, right), and IMR90 (D) cells were transiently transfected with a vector control or pCMV2-Flag-TOPK (WT) or pCMV2-Flag-TOPK (KD) plasmid; twenty-two hours after transfection, a fraction of the cells was harvested for immunoblotting as indicated in (B); the migration and cell viability of TOPK-overexpressing IMR90 cells was also evaluated as described previously (D, right panel) (*P<0.05, **P<0.01, ***P<0.001);
To determine whether TOPK mediated AKT-dependent cell mortility by regulating the PTEN protein level, we first examined whether co-treating cells with LY294002, a PI3K inhibitor, could affect the TOPK-induced decrease in PTEN. […] Moreover, when PTEN was ectopically expressed, TOPK-induced phosphorylation of AKT-Ser^473 was blocked in a dose-dependent manner (FIG. 5A).

[2] = tested on: phospho-H2AX (γ-H2AX); experiment: Immunoblot of cisplatin-induced H2AX phosphorylation; format: cell-based, human; details: cisplatin 35 μM; for cisplatin-induced γ-H2AX after TOPK shRNA: A549-Luc cells stably transfected with shRNA
From the text: Cells were harvested for detecting the expression of phospho-H2AX (γ-H2AX), H2AX and TOPK by immunoblotting.
Platinum-based combination chemotherapy (i.e. cisplatin) is recognized as the first-line standard of care in NSCLC. […]

[3] = tested on: pAKT; experiment: Immunoblot of EGF-induced AKT phosphorylation in A549-Luc cells; format: cell-based, human; details: A549-Luc stably transfected with shRNA; serum deprived 24 hrs; EGF 20 ng/ml, 0-30 min
Experimental: FIG. 15 provides the results of knockdown of TOPK decreasing EGF-induced AKT phosphorylation in A549-Luc cells. shNC, shTOPK-3 (SEQ ID NO: 3), and shTOPK-4 (SEQ ID NO: 4) stably transfected A549-Luc cells were serum deprived for 24 hrs. EGF (20 ng/ml) was added to stimulate cells for 0˜30 min as indicated. Then, cells were harvested for detecting the expression of pAKT, AKT and TOPK by immunoblotting.
(§1) Different lung cancer cell lines have been previously analyzed for the expression level of TOPK (data not shown). […] Recently, we have tested the knockdown effect of TOPK in promoting cisplatin-induced cytotoxicity in other lung cancer cells, such as CL152 and CL141 cells.

[4] = human, in vivo; cited from earlier work
[5] = tested on: CL152 cells; experiment: MTT cell viability after cisplatin in siRNA-transfected CL152 cells; format: cell-based; details: cisplatin 35 μM, 48 hr
Experimental: After 48 hr, MTT assays were performed to examine the cell viability (n=3, ** P<0.01).
as §1

[6] = tested on: CL1-0 cells; experiment: Transwell migration of TOPK-overexpressing CL1-0 cells with pharmacological inhibitors; format: cell-based, human; details: CL1-0 cells transfected with pCMV2-Flag-TOPK; inhibitor 10 μM, 2 hrs
Experimental: All cell culture related reagents were purchased from Invitrogen. […] All cells were cultured in appropriate medium, e.g., RPMI 1640 for A549, CL1-0 and CL1-5; DMEM for IMR90, H1299 and H23. Each medium were supplemented with 10% fetal bovine serum, 2 mM of L-glutamine and 1% penicillin/streptomycin. Transfection of cells was done using lipofetamine (Invitrogen) according to the manufacturer's instructions. […] At 24 or 48 hr post-transfection, cells were harvested and subjected to a migration or proliferation assay and the protein level of TOPK was determined by western blotting as described previously (Chen et al 2009a). Pharmacological inhibitors used (LY294002, U0126, and SB203580) were from Cell Signaling.

Row | Molecule | cisplatin-induced γ-H2AX after TOPK shRNA [2] | EGF-induced AKT phosphorylation [3] | increase in cell migration stimulated by ectopic expression of TOPK [6] | other results
1 | O=c1cc(N2CCOCC2)oc2c(-c3ccccc3)cccc12 [LY294002] | – | – | – | TOPK-induced reduction of PTEN [1]: no effect
2 | shTOPK-4: shRNA having a sequence as set forth in SEQ ID NO:4 (TGTGGGAAATGATGACTTTAT; shRNA, further chemistry not given here) | significantly decreasing | decreasing | – | –
3 | N.N.[Cl][Pt][Cl] [cisplatin] | – | – | – | time of peak of cisplatin-induced γ-H2AX ([2]; A549 control cells): 12 h; concentration found in the serum of cisplatin-treated patients [4]: 35 µM; cell death induced by cisplatin [5]: ~90%
4 | shTOPK-3: shRNA having a sequence as set forth in SEQ ID NO:3 (TGACCCTGAGGCTTGTTACAT; shRNA, further chemistry not given here) | significantly decreasing | decreasing | – | –
5 | C[S+]([O-])c1ccc(-c2nc(-c3ccncc3)c(-c3ccc(F)cc3)[nH]2)cc1 (stereo not shown) [SB203580] | – | – | inhibited to a smaller extent | –
6 | N#CC(=C(/N)Sc1ccccc1N)/C(C#N)=C(\N)Sc1ccccc1N [U0126] | – | – | inhibited to a smaller extent | –
